Activity calls are given as the source filed them. Cut-off read from the data, not from the text of the source: actives have a measured IC50 and inactives only a lower limit.

In the assay the target is Envelope glycoprotein gp160 (Human immunodeficiency virus 1, UniProt Q6QLK5). Nature of the assay: cell-free HIV fusion peptide-binding blockers – biochemical, uHTS, fluorescence dequenching, […] (AID 1986).
Envelope glycoprotein gp160, sequence (Q6QLK5 whole entry, the tested form may be a part): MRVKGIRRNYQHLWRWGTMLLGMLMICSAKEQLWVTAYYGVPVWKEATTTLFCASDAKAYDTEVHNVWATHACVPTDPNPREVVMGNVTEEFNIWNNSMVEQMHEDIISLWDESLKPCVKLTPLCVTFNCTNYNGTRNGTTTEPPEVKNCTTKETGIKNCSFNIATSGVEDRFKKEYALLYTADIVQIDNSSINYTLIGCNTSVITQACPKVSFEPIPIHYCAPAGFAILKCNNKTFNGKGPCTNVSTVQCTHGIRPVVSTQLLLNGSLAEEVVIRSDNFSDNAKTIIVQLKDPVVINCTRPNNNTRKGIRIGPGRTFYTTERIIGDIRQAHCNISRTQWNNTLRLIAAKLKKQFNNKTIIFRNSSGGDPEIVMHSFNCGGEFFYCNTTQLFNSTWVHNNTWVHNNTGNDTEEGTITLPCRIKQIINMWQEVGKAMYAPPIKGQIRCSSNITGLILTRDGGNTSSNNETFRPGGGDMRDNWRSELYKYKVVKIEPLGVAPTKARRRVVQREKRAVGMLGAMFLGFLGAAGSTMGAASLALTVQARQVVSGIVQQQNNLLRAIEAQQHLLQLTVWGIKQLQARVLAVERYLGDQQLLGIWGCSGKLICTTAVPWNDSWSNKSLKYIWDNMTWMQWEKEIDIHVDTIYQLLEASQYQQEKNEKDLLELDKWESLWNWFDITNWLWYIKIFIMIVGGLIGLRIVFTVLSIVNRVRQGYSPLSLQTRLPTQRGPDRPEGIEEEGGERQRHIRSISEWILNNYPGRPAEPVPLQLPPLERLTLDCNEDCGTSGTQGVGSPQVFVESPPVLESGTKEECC
As a reminder, the IC50 is the concentration at which inhibition is half-maximal. In the case of `O=C(O)CCn1cc(/C=C/C(=O)c2ccc(Cl)cc2)c(-c2ccc(Br)cc2)n1`, the IC50 was 21.4 µM (active).
In the case of `O=C(O)CN1C(=O)/C(=C\c2cc(Br)ccc2OCc2ccc(Cl)cc2)SC1=S`, the IC50 is 14.3 µM (active).
Regarding `COc1cc(/C=C2/C(=O)NN(c3ccc(Cl)cc3)C2=O)ccc1OC(=O)c1ccco1`, the IC50 was 11.8 µM (active).
Take `CCOC(=O)c1sc(N2C(=O)C(O)=C(C(=O)c3ccco3)C2c2cccc([N+](=O)[O-])c2)nc1C` (stereo unspecified): the IC50 is 19 µM (active).
`COc1ccccc1/C=C1\SC(=S)N(CCC(=O)Nc2ccc(C(=O)O)c(O)c2)C1=O`: the IC50 was 14.5 µM (active).
Consider `Cc1ccccc1N/N=C/c1sc(=O)n(Cc2cccc(C(=O)O)c2)c1Cl`, for which the concentration for half-maximal inhibition (IC50) was 15.6 µM (active).

For the origin of these results see ChEMBL document CHEMBL1201862, “PubChem BioAssay data set” (2004).
